Laboratory results taken from patent publication US20240116985A1, “STAPLED PEPTIDES AND METHODS THEREOF” (priority 2020, published 2024).
Values after ≈ are worked out from the molar mass of the structure shown. Read-outs that look alike come from different tables or passages of the source.

Legend:
[1] = molecular target: T1, full-length beta-Catenin (Uniprot ID P35222) (Homo sapiens, UniProt P35222); assay: Fluorescence polarization IC50 (beta-catenin / 5FAM-TCF4 10-53 competition); format: binding
T1 construct: 10 nM full-length beta-Catenin (Uniprot ID P35222)
T1 sequence (P35222 1-781): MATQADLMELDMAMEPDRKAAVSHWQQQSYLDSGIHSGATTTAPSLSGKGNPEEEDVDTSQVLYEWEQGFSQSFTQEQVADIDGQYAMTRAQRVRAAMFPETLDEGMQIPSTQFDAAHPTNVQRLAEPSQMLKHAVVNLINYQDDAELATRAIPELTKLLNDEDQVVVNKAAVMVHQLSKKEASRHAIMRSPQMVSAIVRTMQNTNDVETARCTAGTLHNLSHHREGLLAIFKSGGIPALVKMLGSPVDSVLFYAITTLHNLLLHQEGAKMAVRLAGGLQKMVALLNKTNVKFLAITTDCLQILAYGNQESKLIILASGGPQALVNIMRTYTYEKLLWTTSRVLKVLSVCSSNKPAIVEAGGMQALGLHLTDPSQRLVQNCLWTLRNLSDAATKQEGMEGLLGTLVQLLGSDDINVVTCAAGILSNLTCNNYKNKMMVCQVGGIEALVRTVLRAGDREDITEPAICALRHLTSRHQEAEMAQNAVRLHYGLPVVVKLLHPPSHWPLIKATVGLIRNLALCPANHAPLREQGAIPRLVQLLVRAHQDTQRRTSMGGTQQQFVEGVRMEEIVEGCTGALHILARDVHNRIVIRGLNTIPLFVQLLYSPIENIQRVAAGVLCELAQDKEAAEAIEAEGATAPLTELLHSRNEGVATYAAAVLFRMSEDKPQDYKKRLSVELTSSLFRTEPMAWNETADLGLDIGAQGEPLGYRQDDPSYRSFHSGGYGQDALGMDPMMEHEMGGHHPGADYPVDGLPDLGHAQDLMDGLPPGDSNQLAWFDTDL

CHI Log D procedure = format: physicochemical; conditions: for CHI Log D: pH 7.4; for chromatographic logD: pH 7.4, CHI Log D
Solubility in PBS = format: physicochemical
How it was run: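 Steps: ultracentrifuge the peptide PBS solution, inject the supernatant on HPLC, inject a 50 μM peptide DMSO solution as reference, then calculate solubility as area ratio (PBS/DMSO) × 50 uM.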

[2] = molecular target: T2, beta-catenin/TCF4 engagement (Homo sapiens, UniProt P35222); assay: Nano-BRET target engagement assay (B-cat-Halo & TCF4-Luc in HEK293 cells); format: cell-based; conditions: for inhibition at 10 µM: HEK293, @ 10 uM, read-out: NanoBRET % inh @ 10 uM
T2 construct: expressed in transfected cells; host or cells: HEK293
T2 sequence (P35222 1-781): T1 sequence (P35222 1-781)

[3] = fluorescence polarization, read-out: beta-Catenin FP IC50
[4] = absolute IC50, read-out: NanoBRET Abs IC50

Structure (SMILES) | IC50 [1, 3] | IC50 ([1]; read-out: FP EC50) | CHI Log D (CHI Log D procedure) | Solubility (Solubility in PBS) | IC50 [2, 4] | inhibition at 10 µM [2] | chromatographic logD (CHI Log D procedure) | Solubility (Solubility in PBS; Solubility (uM)) | IC50 ([2]; Abs IC50, read-out: NanoBRET Abs IC50) | IC50 ([2]; read-out: NanoBRET IC50)
CC(=O)N1CCC[C@]12CC=CCCCC1(CCCC=CCCCOC(=O)N3CC[C@@](C(=O)N[C@@H](Cc4ccccc4)C(=O)N[C@@H](Cc4csc5ccccc45)C(=O)N[C@@H](Cc4c[nH]cn4)C(N)=O)(C3)NC(=O)[C@H](CC(N)=O)NC(=O)[C@H](Cc3ccccc3)NC(=O)[C@H](C)NC(=O)[C@H](C)NC(=O)[C@H](CCC(=O)O)NC(=O)[C@H](CC(=O)O)NC1=O)NC(=O)[C@H](CC(C)(C)C)NC(=O)[C@H](CC(=O)O)NC2=O (stereo partly drawn) [I-692, Ac-PL3-Asp-Npg-B5-Asp-Glu-Ala-Ala-Phe-Asn-PyrS2-Phe-BztA-His-NH2] | 9 nM | 9 nM | 2.12 | 38 µM (≈ 73.5 µg/mL) | 25600 nM | – | – | – | – | –
CC(=O)N1CCC[C@]12CC=CCCCC1(CCCC=CCCCOC(=O)N3CC[C@@](C(=O)N[C@@H](Cc4ccccc4)C(=O)N[C@@H](Cc4csc5ccccc45)C(=O)N[C@@H](Cc4c[nH]cn4)C(N)=O)(C3)NC(=O)[C@H](CC(N)=O)NC(=O)[C@H](Cc3ccccc3)NC(=O)[C@H](C)NC(=O)[C@H](C)NC(=O)[C@H](CCC(=O)O)NC(=O)[C@H](CC(=O)O)NC1=O)NC(=O)[C@H](CC(C)(C)C)NC(=O)[C@H](CC(=O)O)NC2=O (stereo partly drawn) [I-693, Ac-PL3-Asp-Npg-B5-Asp-Glu-Ala-Ala-Phe-Asn-PyrS2-Phe-BztA-His-NH2] | 12 nM | 12 nM | 2.184 | 34 µM (≈ 65.8 µg/mL) | 28500 nM | – | – | – | – | –
CC(=O)N1CCC[C@]12CC=CCCCC1(CCCC=CCCCOC(=O)N3CC[C@@](C(=O)N[C@@H](Cc4ccsc4)C(=O)N[C@@H](Cc4csc5ccccc45)C(=O)N[C@@H](Cc4c[nH]cn4)C(N)=O)(C3)NC(=O)[C@H](CC(N)=O)NC(=O)[C@H](Cc3ccccc3)NC(=O)[C@H](C)NC(=O)[C@H](C)NC(=O)[C@H](CC(=O)O)NC(=O)[C@H](CC(=O)O)NC1=O)NC(=O)[C@H](CC(C)(C)C)NC(=O)[C@H](CC(=O)O)NC2=O (stereo partly drawn) [I-694, Ac-PL3-Asp-Npg-B5-Asp-Asp-Ala-Ala-Phe-Asn-PyrS2-3Thi-BztA-His-NH2] | 5 nM | – | 2.073 | 40 µM (≈ 77.1 µg/mL) | – | 32.7% | – | – | – | –
CC(=O)N1CCC[C@]12CC=CCCCC1(CCCC=CCCCOC(=O)N3CC[C@@](C(=O)N[C@@H](Cc4ccsc4)C(=O)N[C@@H](Cc4csc5ccccc45)C(=O)N[C@@H](Cc4c[nH]cn4)C(N)=O)(C3)NC(=O)[C@H](CC(N)=O)NC(=O)[C@H](Cc3ccccc3)NC(=O)[C@H](C)NC(=O)[C@H](C)NC(=O)[C@H](CC(=O)O)NC(=O)[C@H](CC(=O)O)NC1=O)NC(=O)[C@H](CC(C)C)NC(=O)[C@H](CC(=O)O)NC2=O (stereo partly drawn) [I-696, Ac-PL3-Asp-Leu-B5-Asp-Asp-Ala-Ala-Phe-Asn-PyrS2-3Thi-BztA-His-NH2] | 5 nM | – | – | – | – | 17% | 2 | 40 µM (≈ 76.5 µg/mL) | – | –
CC(=O)N1CCC[C@]12CC=CCCCC1(CCCC=CCCCOC(=O)N3CC[C@@](C(=O)N[C@@H](Cc4ccsc4)C(=O)N[C@@H](Cc4csc5ccccc45)C(=O)N[C@@H](Cc4c[nH]cn4)C(N)=O)(C3)NC(=O)[C@H](CC(N)=O)NC(=O)[C@H](Cc3ccccc3)NC(=O)[C@H](C)NC(=O)[C@H](C)NC(=O)[C@H](CCC(=O)O)NC(=O)[C@H](CC(=O)O)NC1=O)NC(=O)[C@H](CC(C)(C)C)NC(=O)[C@H](CC(=O)O)NC2=O (stereo partly drawn) [I-697, Ac-PL3-Asp-Npg-B5-Asp-Glu-Ala-Ala-Phe-Asn-PyrS2-3Thi-BztA-His-NH2] | 5 nM | – | 2.093 | 21 µM (≈ 40.8 µg/mL) | 14700 nM | – | – | – | – | –

Further lines, results first:

IC50 [1, 3] | IC50 ([1]; read-out: FP EC50) | CHI Log D (CHI Log D procedure) | Solubility (Solubility in PBS) | IC50 [2, 4] | inhibition at 10 µM [2] | chromatographic logD (CHI Log D procedure) | Solubility (Solubility in PBS; Solubility (uM)) | IC50 ([2]; Abs IC50, read-out: NanoBRET Abs IC50) | IC50 ([2]; read-out: NanoBRET IC50) | Structure (SMILES)
34 nM | 34 nM | 2.631 | 46 µM (≈ 90.7 µg/mL) | 18100 nM | – | – | – | – | – | CC[C@H](C)[C@@H]1NC(=O)[C@H](CC(=O)O)NC(=O)[C@]2(CC=CCCCC3(CCCC=CCCCCCC[C@@](C)(C(=O)N[C@@H](Cc4ccsc4)C(=O)N[C@@H](Cc4csc5ccccc45)C(=O)N[C@@H](CCC(N)=O)C(N)=O)NC(=O)[C@H](CC(N)=O)NC(=O)[C@H](Cc4ccccc4)NC(=O)[C@H](C)NC(=O)[C@H](C)NC(=O)[C@H](CN(CC(=O)O)CC(F)(F)F)NC(=O)[C@H](CC(=O)O)NC3=O)NC1=O)CCCN2C(C)=O (stereo partly drawn) [I-701, Ac-PL3-Asp-Ile-B5-Asp-TfeGA-Ala-Ala-Phe-Asn-S8-3Thi-BztA-Gln-NH2]
57 nM | – | – | 50 µM (≈ 99 µg/mL) | – | – | 2.76 | – | 11900 nM | – | CC(=O)N1CCC[C@]12CC=CCCCC1(CCCC=CCCCCCC[C@@](C)(C(=O)N[C@@H](Cc3ccccc3)C(=O)N[C@@H](Cc3csc4ccccc34)C(=O)N[C@@H](CCC(N)=O)C(N)=O)NC(=O)[C@H](CC(N)=O)NC(=O)[C@H](Cc3ccccc3)NC(=O)[C@H](C)NC(=O)[C@H](C)NC(=O)[C@H](CN(CC(=O)O)CC(F)(F)F)NC(=O)[C@H](CC(=O)O)NC1=O)NC(=O)[C@H](CC(C)(C)C)NC(=O)[C@H](CC(=O)O)NC2=O (stereo partly drawn) [I-703, Ac-PL3-Asp-Npg-B5-Asp-TfeGA-Ala-Ala-Phe-Asn-S8-Phe-BztA-Gln-NH2]
49 nM | – | – | – | – | – | 2.75 | 42 µM (≈ 83.4 µg/mL) | – | 7900 nM | CC(=O)N1CCC[C@]12CC=CCCCC1(CCCC=CCCCCCC[C@@](C)(C(=O)N[C@@H](Cc3ccsc3)C(=O)N[C@@H](Cc3csc4ccccc34)C(=O)N[C@@H](CCC(N)=O)C(N)=O)NC(=O)[C@H](CC(N)=O)NC(=O)[C@H](Cc3ccccc3)NC(=O)[C@H](C)NC(=O)[C@H](C)NC(=O)[C@H](CN(CC(=O)O)CC(F)(F)F)NC(=O)[C@H](CC(=O)O)NC1=O)NC(=O)[C@H](CC(C)(C)C)NC(=O)[C@H](CC(=O)O)NC2=O (stereo partly drawn) [I-704, Ac-PL3-Asp-Npg-B5-Asp-TfeGA-Ala-Ala-Phe-Asn-S8-3Thi-BztA-Gln-NH2]
52 nM | 52 nM | 2.976 | 47 µM (≈ 94.6 µg/mL) | – | – | – | – | – | 11500 nM | CC(=O)N1CCC[C@]12CC=CCCCC1(CCCC=CCCCCCC[C@@](C)(C(=O)N[C@@H](Cc3ccsc3)C(=O)N[C@@H](Cc3csc4ccccc34)C(=O)N[C@@H](CCC(N)=O)C(N)=O)NC(=O)[C@H](CC(N)=O)NC(=O)[C@H](Cc3ccccc3)NC(=O)[C@H](C)NC(=O)[C@H](C)NC(=O)[C@H](CN(CC(=O)O)CC(F)(F)F)NC(=O)[C@H](CC(=O)O)NC1=O)NC(=O)[C@H](CC1CCCCC1)NC(=O)[C@H](CC(=O)O)NC2=O (stereo partly drawn) [I-708, Ac-PL3-Asp-Cha-B5-Asp-TfeGA-Ala-Ala-Phe-Asn-S8-3Thi-BztA-Gln-NH2]
35 nM | 35 nM | 2.377 | 44 µM (≈ 85.4 µg/mL) | 11200 nM | – | – | – | – | – | CC(=O)N1CCC[C@]12CC=CCCCC1(CCCC=CCCCCCC[C@@](C)(C(=O)N[C@@H](Cc3ccccc3)C(=O)N[C@@H](Cc3csc4ccccc34)C(=O)N[C@@H](CCC(N)=O)C(=O)N[C@@H](C)C(N)=O)NC(=O)[C@H](CC(N)=O)NC(=O)[C@H](Cc3ccccc3)NC(=O)[C@H](C)NC(=O)[C@H](C)NC(=O)[C@H](CCC(=O)O)NC(=O)[C@H](CC(=O)O)NC1=O)NC(=O)[C@H](CC(C)C)NC(=O)[C@H](CC(=O)O)NC2=O (stereo partly drawn) [I-730, Ac-PL3-Asp-Leu-B5-Asp-Glu-Ala-Ala-Phe-Asn-S8-Phe-BztA-Gln-Ala-NH2]
34 nM | – | – | – | 11600 nM | – | 2.33 | 48 µM (≈ 93.1 µg/mL) | – | – | CC(=O)N1CCC[C@]12CC=CCCCC1(CCCC=CCCCCCC[C@@](C)(C(=O)N[C@@H](Cc3ccccc3)C(=O)N[C@@H](Cc3csc4ccccc34)C(=O)N[C@@H](CCC(N)=O)C(=O)N[C@H](C)C(N)=O)NC(=O)[C@H](CC(N)=O)NC(=O)[C@H](Cc3ccccc3)NC(=O)[C@H](C)NC(=O)[C@H](C)NC(=O)[C@H](CCC(=O)O)NC(=O)[C@H](CC(=O)O)NC1=O)NC(=O)[C@H](CC(C)C)NC(=O)[C@H](CC(=O)O)NC2=O (stereo partly drawn) [I-731, Ac-PL3-Asp-Leu-B5-Asp-Glu-Ala-Ala-Phe-Asn-S8-Phe-BztA-Gln-dAla-NH2]
40 nM | 40 nM | 2.472 | 45 µM (≈ 82.9 µg/mL) | 9000 nM | – | – | – | – | – | CC(=O)N1CCC[C@]12CC=CCCCC1(CCCC=CCCCCCC[C@@](C)(C(=O)N[C@@H](Cc3ccccc3)C(=O)N[C@@H](Cc3csc4ccccc34)C(=O)N[C@H](C(N)=O)[C@@H](C)O)NC(=O)[C@H](CC(N)=O)NC(=O)[C@H](Cc3ccccc3)NC(=O)[C@H](C)NC(=O)[C@H](C)NC(=O)[C@H](CCC(=O)O)NC(=O)[C@H](CC(=O)O)NC1=O)NC(=O)[C@H](CC(C)C)NC(=O)[C@H](CC(=O)O)NC2=O (stereo partly drawn) [I-749, Ac-PL3-Asp-Leu-B5-Asp-Glu-Ala-Ala-Phe-Asn-S8-Phe-BztA-Thr-NH2]
